No end group written: not given here.
What was measured:
[1] = Thermal melts monitored by circular dichroism at 222 nm (coiled coil peptides); type: physicochemical; conditions: surface designs on GCN4-p1, pH 7.0, 40 μM
Method: A 1 mm pathlength cell was used and the temperature was controlled by a thermoelectric unit. Thermal melts were performed in the same buffer using two degree temperature increments with an averaging time of 10 s and an equilibration time of 90 s. […] Peptide concentrations were determined from the tyrosine absorbance at 275 nm (Huyghues-Despointes, et al., supra).

[2] = Size exclusion chromatography, oligomerization state (coiled coil peptides); type: physicochemical; conditions: pH 7.0, 0° C.
Method: Size exclusion chromatography: Size exclusion chromatography was performed with a Synchropak GPC 100 column (25 cm by 4.6 mm) at pH 7.0 in 50 mM phosphate and 150 mM NaCl at 0° C. […] 10 μl injections of 1 mM peptide solution were chromatographed at 0.20 ml/min and monitored at 275 nm. Peptide concentrations were approximately 60 μM as estimated from peak heights. Samples were run in triplicate.
Size exclusion chromatography was performed with a PolyLC hydroxyethyl A column (20 cm×9 mm) at pH 7.0 in 50 mM phosphate and 150 mM NaCl at 0° C. […] 5 μl injections of ˜1 mM peptide solution were chromatographed at 0.50 ml/min and monitored at 214 nm. Samples were run in triplicate.

[3] = Circular dichroism spectra, ellipticity at 222 nm and helical content (coiled coil peptides); type: physicochemical; conditions: 1° C., 40 μM
Method: Circular dichroism CD spectra were measured on an Aviv 62DS spectrometer at pH 7.0 in 50 mM phosphate, 150 mM NaCl and 40 μM peptide. A 1 mm pathlength cell was used and the temperature was controlled by a thermoelectric unit.
Circular dichroism spectroscopy (CD) was used to assay the secondary structure and thermal stability of the designed peptides.
The secondary structures and thermal stabilities of the peptides were assessed by circular dichroism (CD) spectroscopy.

[4] = type: physicochemical; conditions: pH 5.5

Work on “Ac-RMAALEAKVAALLAKNAALEAEVAALKALVGER-NH2 [6F]” yielded a Tm [1] of 73 °C.
In the case of “Ac-RMARLEAKVAALLAKNRRLEREVARLKALVGER-NH2 [6C]”, the Tm [1] is reported as 69 °C and the “N (oligomerization state)” value [2] is reported as 2.
With “Ac-RMEKLEDKVRELLRKNRRLEEEVRRLKELVGER-NH2 [6A]” the Tm [1] was 71 °C and the “N (oligomerization state)” value [2] was 2.
In the case of “Ac-RMEKLEQKVKELLRKNERLEEEVERLKQLVGER-NH2 [6B]”, the Tm [1] is reported as 72 °C and the “N (oligomerization state)” value [2] is reported as 2.
For “Ac-RMNTLERKVAKLLSKNANLEHEVNTLKQLVGER-NH2 [6E]”, the Tm [1] was 15 °C, the “N (oligomerization state)” value [2] was 2 and the “[θ]222” value [3] was −12000 deg cm^2/dmol.
With “Ac-RMRELEEKVRRLLRKNEDLEREVKRLKELVGER-NH2 [6D]” the Tm [1] was 71 °C and the “N (oligomerization state)” value [2] was 2.
Substance “MTWKYIINGKTLKGETTTEIVDAATFEKVWKQYLNDNGIDGEFTYDDATKTLTITE [α70]” has a limited solubility [4] of 100 µM.

Source: patent publication US6950754B2, “Apparatus and method for automated protein design” (The California Institute of Technology, priority 1997, dated 2005)
